Experiments:
Type in all cases: physicochemical
Details in all cases: Lipid:siRNA 25:1
[1] = Ribogreen assay for siRNA encapsulation efficiency of Lipid-Based Particles
Experimental: The mixing solution of cationic lipids, cholesterol, non-cationic lipids and PEG-lipids was prepared in ethanol (total concentration at 10 mg/mL). siSTABLE (purchased from ThermoFisher) (sense-5′ GGGGAAAGCUGGCAAGAUUUU-3′ SEQ ID NO: 1) antisense-5′-AAUCUUGCCAGCUUUCCCCUU-3′ SEQ ID NO: 2) % stock solution was prepared in 10 mg/mL of solution by dissolving 10 mg siRNA in 1 mL of RNAse-free UltraPure Water. The calculated amount of siRNA solution was added to 1 mL of citrate buffer (pH 4.0, 20 mM), to provide an siRNA concentration of 0.2 mg/mL, and warmed to 60° C. The calculated amount of lipid solution was warmed to 60° C., transferred to a 0.5 mL syringe with 28½ gauge needle, and injected into the citrate buffer with stirring at 60° C. After 3 minutes, 3 mL of PBS solution at room temperature (pH 7.4) was added into the lipid mixture with stirring. The Lipid-Based Particle solution was cooled to room temperature.
(§1) The siRNA concentrations were measured using Quanti-iT RiboGreen RNA reagent (Molecular Probes, (R11490)). Vesicle sizes were characterized by dynamic light scattering with a DynaPro™ Plate Reader (Wyatt Technology) in 96-well half-area UV plate (Coring) after diluting the formulation sample (20 μL) in phosphate buffered saline (80 μL) at a pH of about 7-8. A 1% agarose gel-based assay was used for analyzing nuclease degradation and protection. Encapsulation efficiency (EE) was calculated using data obtained from a RiboGreen assay.
RNA concentration and encapsulation efficiency were determined using a Quant-iT® Ribogreen RNA reagent and kit available from Invitrogen. The siRNA was released from the Lipid-Based Particle using one of the following reagents: ethanol, Triton X-100, or phenol/chloroform. The siRNA concentration is quantified using fluorescent reading at 480 nm/520 nm.
(§2) A round bottom flask was submerged into a 65° C. water bath. Citrate buffer (37.5 ml) of pH 4.0 was pipetted into the flask. The solution was stirred by a magnetic stirring bar at a speed of 900 rpm. Both the pH 4.0 citrate buffer and the lipid solution were pre-warmed in the 65° C. water bath for about 3 minutes. A siRNA solution (0.5 ml) was pipetted into the pH 4.0 citrate buffer. The 12.5 ml lipid mixture solution was injected through a 27 gauge needle into the citrate buffer in about 30 seconds. The needle tip was inserted into the solution during the injection. The resulting solution was stirred for 5 minutes at a speed of 900 rpm. The flask was pulled up from the water bath and a 50 ml pH 7.4 PBS buffer was added into the flask. The final solution was further mixed at a speed of 900 rpm for 5 minutes. For the diafiltration process, a dialysis filter (Millipore, 100K, Cat #PXB100C50) was used to remove ethanol in the above solution. When the volume was reduced to 20 ml during the initial diafiltration, 20 ml of pH 7.4 PBS was added to the sample solution. The diafiltration was continued until the volume was reduced to 20 ml. The diafiltration process was repeated 4 times. The volume of the sample solution was reduced to about 12 ml and pH 7.4 PBS was added to make the final volume of 15 ml. The 15 ml solution was filtered sequentially through the 0.45 and 0.22 μm sterile PVDF membrane filters (Millipore) and immediately transferred into a sterile vial.

[2] = Particle sizing assay of in vivo formulations (Zetasizer Nano ZS)
Experimental: as §2
For measurements of particle sizes and size distributions (PDI), lipid-based particles were prepared as described above. The particle solution (60 μL) was pipetted into a disposable cuvette (UVette, Eppendorf, cat #952010051) and measured in the “General Purpose” mode. Attenuator and position were optimized by the device. Measurements were performed using a Zetasizer Nano ZS (Malvern Instruments) equipped with a 4 mW He—Ne laser at a wavelength of 633 nm at 25° C. Scattered light was detected at a 173° backward scattering angle. The viscosity and refractive index of water at 25° C. was used for data analysis with the Dispersion Technology Software 5.00 (Malvern Instruments).

[3] = Particle sizing assay of in vitro formulations (dynamic light scattering, DynaPro plate reader)
Experimental: as §1
Particle sizes and size distributions (PDI) were characterized by using dynamic light scattering (DLS). A DLS plate reader (Dynapro™, Wyatt Technology) was used for the DLS measurement. This DLS plate reader uses an 830 nm laser and the scattering angle is 158°. It also can control temperature from 4° C. to 70° C. A 96-well format was employed for the samples.
Samples for DLS analysis were prepared by mixing 20 μL of each sample stock solution with 80 μL PBS directly in the 96-well plate (#3697, Coming). Sample mixing was accomplished using a microplate shaker (Orbis, Mikura Ltd.). Plates were read at 20° C. with an acquisition time of 50 seconds for each sample, and data was analyzed with Wyatt Technology's Dynamics V6 software. To rule out potential multiple scattering artifacts, a second plate at […] reduced sample concentrations was independently prepared by mixing 5 μL stock solutions with 95 μL PBS. Under our experimental conditions the results at the two concentrations were very similar, and the final reported result for each sample represents the average of values obtained from the two plates.

[4] = in vivo formulation A: Cationic lipid/Example 58/DSPC/Chol 45/10/15/30 wt %
[5] = in vitro formulation b: Cationic lipid/PEG-Chol/DSPC/Chol 45/10/15/30 wt %
[6] = in vivo formulation C: Cationic lipid/Pal-PEG-Cera/DSPC/Chol 45/10/15/30 wt %
[7] = in vitro formulation a: Cationic lipid/Example 56/DSPC/Chol 45/10/15/30 wt %
[8] = in vivo formulation D: Cationic lipid/PEG-DMPE/PEG-DSPE/DSPC/Chol 44/4.5/4.5/14/33 wt %

CCCCC/C=C\C/C=C\CCCCCCCCOCC(COCCCCCCCC/C=C\C/C=C\CCCCC)NCCCn1ccnc1 [Example 3, N-(3-(1H-imidazol-1-yl)propyl)-N-(2-((9Z,12Z)-octadeca-9,12-dienyloxy)-1-(((9Z,12Z)-octadeca-9,12-dienyloxy)methyl)ethyl)amine]
% Encapsulation Efficiency [1, 4]: 87.6%
Size [2, 4]: 185 nm

CCCCC/C=C\C/C=C\CCCCCCCCOCC(COCCCCCCCC/C=C\C/C=C\CCCCC)N1CCN(C)CC1 [Example 4, 1-methyl-4-(2-((9Z,12Z)-octadeca-9,12-dienyloxy)-1-(((9Z,12Z)-octadeca-9,12-dienyloxy)methyl)ethyl)piperazine]
% Encapsulation Efficiency [1, 5]: 96.7%
% Encapsulation Efficiency [1, 4]: 72.6%
Size [3, 5]: 125.6 nm
PDI (size distribution) [2, 4]: 0.2
Size [2, 4]: 149 nm

CCCCC/C=C\C/C=C\CCCCCCCCOCC(COCCCCCCCC/C=C\C/C=C\CCCCC)NCCCN1CCCC1 [Example 6, N-(2-((9Z,12Z)-octadeca-9,12-dienyloxy)-1-(((9Z,12Z)-octadeca-9,12-dienyloxy)methyl)ethyl)-N-(3-pyrrolidin-1-ylpropyl)amine]
% Encapsulation Efficiency [1, 5]: 84.2%
% Encapsulation Efficiency [1, 4]: 75.5%
Size [3, 5]: 132.6 nm
PDI (size distribution) [2, 4]: 0.145
Size [2, 4]: 121 nm

CCCCC/C=C\C/C=C\CCCCCCCCOCC(COCCCCCCCC/C=C\C/C=C\CCCCC)NCCN(C)C [Example 7, N,N-dimethyl-N′-(2-((9Z,12Z)-octadeca-9,12-dienyloxy)-1-(((9Z,12Z)-octadeca-9,12-dienyloxy)methyl)ethyl)ethane-1,2-diamine]
% Encapsulation Efficiency [1, 5]: 91.8%
% Encapsulation Efficiency [1, 6]: 91.8%
Size [3, 5]: 130 nm
PDI (size distribution) [2, 4]: 0.15
Size [2, 4]: 123 nm
PDI (size distribution) [2, 6]: 0.128
Size [2, 6]: 119 nm

CCCCC/C=C\C/C=C\CCCCCCCCOCC(COCCCCCCCC/C=C\C/C=C\CCCCC)NCCc1c[nH]cn1 [Example 9, N-(2-(1H-imidazol-4-yl)ethyl)-N-(2-((9Z,12Z)-octadeca-9,12-dienyloxy)-1-(((9Z,12Z)-octadeca-9,12-dienyloxy)methyl)ethyl)amine]
% Encapsulation Efficiency [1, 5]: 95.8%
% Encapsulation Efficiency [1, 6]: 98.9%
Size [3, 5]: 116.8 nm
PDI (size distribution) [2, 4]: 0.13
Size [2, 4]: 138 nm
PDI (size distribution) [2, 6]: 0.104
Size [2, 6]: 87 nm

CCCCC/C=C\C/C=C\CCCCCCCCOCC(COCCCCCCCC/C=C\C/C=C\CCCCC)N(C)Cc1cccc(CN2CCCC2)c1 [Example 18, N-methyl-N-(2-((9Z,12Z)-octadeca-9,12-dienyloxy)-1-(((9Z,12Z)-octadeca-9,12-dienyloxy)methyl)ethyl)-N-(3-(pyrrolidin-1-ylmethyl)benzyl)amine]
% Encapsulation Efficiency [1, 7]: 96.7%
Size [3, 7]: 122 nm

CCCCC/C=C\C/C=C\CCCCCCCCOCC(COCCCCCCCC/C=C\C/C=C\CCCCC)N1CCN(CCn2ccnc2)CC1 [Example 19, 1-(2-(1H-imidazol-1-yl)ethyl)-4-(2-((9Z,12Z)-octadeca-9,12-dienyloxy)-1-(((9Z,12Z)-octadeca-9,12-dienyloxy)methyl)ethyl)piperazine]
% Encapsulation Efficiency [1, 7]: 97.0%
Size [3, 7]: 118 nm

CCCCC/C=C\C/C=C\CCCCCCCCOCC(COCCCCCCCC/C=C\C/C=C\CCCCC)NCc1cccnc1N1CCCC1 [Example 20, N-(2-((9Z,12Z)-octadeca-9,12-dienyloxy)-1-(((9Z,12Z)-octadeca-9,12-dienyloxy)methyl)ethyl)-N-((2-pyrrolidin-1-ylpyridin-3-yl)methyl)amine]
% Encapsulation Efficiency [1, 7]: 55.9%
Size [3, 7]: 134 nm

CCCCC/C=C\C/C=C\CCCCCCCC(=O)OCC(COC(=O)CCCCCCC/C=C\C/C=C\CCCCC)N1CCN(C)CC1 [Example 21, (9Z,9′Z,12Z,12′Z)-2-(4-methylpiperazin-1-yl)propane-1,3-diyl dioctadeca-9,12-dienoate]
% Encapsulation Efficiency [1, 7]: 96.6%
Size [3, 7]: 117.2 nm

CCCCC/C=C\C/C=C\CCCCCCCC(=O)OCC(COC(=O)CCCCCCC/C=C\C/C=C\CCCCC)NCCCN1CCCC1 [Example 22, (9Z,9′Z,12Z,12′Z)-2-(3-(pyrrolidin-1-yl)propylamino)propane-1,3-diyl dioctadeca-9,12-dienoate]
% Encapsulation Efficiency [1, 7]: 88.4%
Size [3, 7]: 120.8 nm

CCCCC/C=C\C/C=C\CCCCCCCCOCC(COCCCCCCCC/C=C\C/C=C\CCCCC)CN1CCN(C)CC1 [Example 23, 1-methyl-4-(3-((9Z,12Z)-octadeca-9,12-dienyloxy)-2-(((9Z,12Z)-octadeca-9,12-dienyloxy)methyl)propyl)piperazine]
% Encapsulation Efficiency [1, 5]: 98.1%
% Encapsulation Efficiency [1, 4]: 93.2%
PDI (size distribution) [2, 4]: 0.054
Size [2, 4]: 116 nm

CCCCC/C=C\C/C=C\CCCCCCCCOCC(COCCCCCCCC/C=C\C/C=C\CCCCC)N1CCN(CCN2CCCC2)CC1 [Example 52, 1-(2-[(9Z,12Z)-octadeca-9,12-dienyloxy]-1-{[(9Z,12Z)-octadeca-9,12-dienyloxy]methyl}ethyl)-4-(2-pyrrolidin-1-ylethyl)piperazine]
% Encapsulation Efficiency [1, 7]: 77.9%
Size [3, 7]: 111.6 nm

CCCCCCCC/C=C\CCCCCCCCOCC(COCCCCCCCC/C=C\CCCCCCCC)NCCCN1CCCC1 [Example 53, N-(2-[(9Z)-octadec-9-enyloxy]-1-{[(9Z)-octadec-9-enyloxy]methyl}ethyl)-N-(3-pyrrolidin-1-ylpropyl)amine]
% Encapsulation Efficiency [1, 5]: 99.0%
% Encapsulation Efficiency [1, 8]: 99.0%
PDI (size distribution) [2, 8]: 0.089
Size [2, 8]: 121.2 nm

Source: patent US20100055168A1, “CATIONIC LIPIDS AND USES THEREOF” (ABBOTT LABORATORIES, priority 2008, published 2010)
